EC50 data for 18 compounds are collected here from US8030354B2, “Substituted biphenyl GPR40 modulators” (Amgen Inc., priority 2007, dated 2011).

pEC50: −log10 of the molar value.

The target of the assay is GPR40 (Homo sapiens, UniProt O14842). In words: Cell-based aequorin assay (CHO cells stably expressing GPR40 and aequorin). Also on record: expressed in transfected cells; host or cells: CHO cells stably transfected with GPR40 and aequorin. Conditions: activation of human GPR40, CHO cells, 0.01% HSA. On the procedure: Briefly, the Aequorin assays were performed on doubly stable CHO cells expressing GPR40 and Aequorin DNA. […] The luminescence was recorded over a period of 20 seconds with a Microlumat luminometer (Berthold). […] The inositol phosphate assay was performed on an A9 cell line stably transfected with GPR40 (A9_GPR40). The cells were incubated with different concentrations of compounds and [^3H] inositol accumulation was measured after 1 hour.
GPR40, sequence (O14842 whole entry): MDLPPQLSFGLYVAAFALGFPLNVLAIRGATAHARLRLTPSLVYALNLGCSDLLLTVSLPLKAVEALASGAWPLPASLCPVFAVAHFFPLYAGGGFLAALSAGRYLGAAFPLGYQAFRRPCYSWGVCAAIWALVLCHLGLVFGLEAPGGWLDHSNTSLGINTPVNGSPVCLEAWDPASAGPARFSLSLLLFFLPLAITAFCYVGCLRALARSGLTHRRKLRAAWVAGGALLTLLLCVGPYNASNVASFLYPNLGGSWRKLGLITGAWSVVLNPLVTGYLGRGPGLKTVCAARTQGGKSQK
Cell-based aequorin assays were employed to characterize the modulatory activity of compounds on the GPR40 signaling pathway. In an exemplary assay, CHO cells were stably transfected with both GPR40 and Aequorin (Euroscreen). Cells were detached from the tissue culture dish with 2 mL of trypsin (0.25%(w/v)). Trypsinization was halted with 28 mL of Hanks Buffered Salt Solution containing 20 mM Hepes (H/HBSS) and 0.01% fatty acid-free human serum albumin (HSA). Coelantrazine is added to 1 ug/mL, and the cells were incubated for 2 hours at room temperature. Compounds were dissolved in DMSO for preparation of 10 mM stock solutions. Compounds were diluted in H/HBSS containing 0.01% HSA. Serial dilutions of the test compounds were prepared to determine dose response.
Aequorin luminescence measurements were made using an EG&G Berthold 96-well luminometer, and the response was measured over a 20 second interval after cells and compounds were mixed. The maximum relative light units was plotted to determine dose response. The EC50 (effective concentration to reach 50% maximal response) was determined from the dose response plot.
One may read the pEC50 as the EC50 on a negative log10 scale, so that one unit is a factor of ten. Turning to `COc1ccc(F)c(-c2ccc(COc3cccc([C@H](C)CC(=O)O)c3)cc2OC2CCCC2)c1` (single isomer, unassigned) [Example 32, (3R)-3-(3-(((2-(Cyclopentyloxy)-2′-fluoro-5′-(methyloxy)-1,1′-biphenyl-4-yl)methyl)oxy)phenyl)butanoic acid or (3S)-3-(3-(((2-(cyclopentyloxy)-2′-fluoro-5′-(methyloxy)-1,1′-biphenyl-4-yl)methyl)oxy)phenyl)butanoic acid], the pEC50 is 6.00 to 7.00. `C=C(C)[C@@H](CC(=O)O)c1cccc(OCc2ccc(-c3cc(OC)ccc3F)c(C(C)(C)C)c2)c1` (single isomer, unassigned) [Example 48, (3R)-3-(3-(((2-(1,1-Dimethylethyl)-2′-fluoro-5′-(methyloxy)-1,1′-biphenyl-4-yl)methyl)oxy)phenyl)-4-methyl-4-pentenoic acid or (3S)-3-(3-(((2-(1,1-dimethylethyl)-2′-fluoro-5′-(methyloxy)-1,1′-biphenyl-4-yl)methyl)oxy)phenyl)-4-methyl-4-pentenoic acid] had a pEC50 of 5.00 to 6.00.

On to `COc1ccc(F)c(-c2ccc(COc3cccc([C@@H](CC(=O)O)C(C)C)c3)cc2C(C)(C)C)c1` (single isomer, unassigned) [Example 52], for which the pEC50 was 5.00 to 6.00. Compound `CCCCOc1cc(COc2cccc([C@@H](CC(=O)O)C(C)C)c2)ccc1-c1cc(OC)ccc1F` (single isomer, unassigned) [Example 53] gave a pEC50 of 5.00 to 6.00.

On to `C=CC[C@H](CC(=O)O)c1cccc(OCc2ccc(-c3cc(OC)ccc3F)c(OCCCC)c2)c1` (single isomer, unassigned) [Example 54, (3R)-3-(3-(((2-(Butyloxy)-2′-fluoro-5′-(methyloxy)-1,1′-biphenyl-4-yl)methyl)oxy)phenyl)-5-hexenoic acid or (3S)-3-(3-(((2-(butyloxy)-2′-fluoro-5′-(methyloxy)-1,1′-biphenyl-4-yl)methyl)oxy)phenyl)-5-hexenoic acid], for which the pEC50 was 5.00 to 6.00.

On to `COc1cccc(-c2ccc(COc3cccc([C@@H](CC(=O)O)C(C)C)c3)cc2C(C)(C)C)c1` (single isomer, unassigned) [Example 58, (3S)-3-(3-(((2-(1,1-Dimethylethyl)-3′-(methyloxy)-1,1′-biphenyl-4-yl)methyl)oxy)phenyl)-4-methylpentanoic acid or (3R)-3-(3-(((2-(1,1-dimethylethyl)-3′-(methyloxy)-1,1′-biphenyl-4-yl)methyl)oxy)phenyl)-4-methylpentanoic acid], for which the pEC50 is 5.00 to 6.00. Next, `COc1ccc(F)c(-c2ccc(COc3cccc(CC(C)C(=O)O)c3)cc2C2=CCCC2(C)C)c1` (single isomer, unassigned) [Example 62.1, (2R)-3-(3-(((2-(5,5-Dimethyl-1-cyclopenten-1-yl)-2′-fluoro-5′-(methyloxy)-1,1′-biphenyl-4-yl)methyl)oxy)phenyl)-2-methylpropanoic acid or (2S)-3-(3-(((2-(5,5-dimethyl-1-cyclopenten-1-yl)-2′-fluoro-5′-(methyloxy)-1,1′-biphenyl-4-yl)methyl)oxy)phenyl)-2-methylpropanoic acid]: 6.00 to 7.00. The same measure for `COc1ccc(F)c(-c2ccc(COc3cccc(CC(C)C(=O)O)c3)cc2C2CCCC2(C)C)c1` (single isomer, unassigned) [Example 62.2, (2R)-3-(3-(((2-(2,2-Dimethylcyclopentyl)-2′-fluoro-5′-(methyloxy)-1,1′-biphenyl-4-yl)methyl)oxy)phenyl)-2-methylpropanoic acid or (2S)-3-(3-(((2-(2,2-dimethylcyclopentyl)-2′-fluoro-5′-(methyloxy)-1,1′-biphenyl-4-yl)methyl)oxy)phenyl)-2-methylpropanoic acid]: 6.00 to 7.00; for `COc1ccc(F)c(-c2ccc(COc3cccc(C[C@H](C)C(=O)O)c3)cc2C2=CCCC2(C)C)c1` (single isomer, unassigned) [Example 63.1, (2S)-3-(3-(((2-(5,5-Dimethyl-1-cyclopenten-1-yl)-2′-fluoro-5′-(methyloxy)-1,1′-biphenyl-4-yl)methyl)oxy)phenyl)-2-methylpropanoic acid or (2R)-3-(3-(((2-(5,5-dimethyl-1-cyclopenten-1-yl)-2′-fluoro-5′-(methyloxy)-1,1′-biphenyl-4-yl)methyl)oxy)phenyl)-2-methylpropanoic acid]: 6.00 to 7.00. For the compound `COc1ccc(F)c(-c2ccc(COc3cccc(CC(C)C(=O)O)c3)cc2C2CCCC2(C)C)c1` (single isomer, unassigned) [Example 63.2, (2S)-3-(3-(((2-(2,2-Dimethylcyclopentyl)-2′-fluoro-5′-(methyloxy)-1,1′-biphenyl-4-yl)methyl)oxy)phenyl)-2-methylpropanoic acid or (2R)-3-(3-(((2-(2,2-dimethylcyclopentyl)-2′-fluoro-5′-(methyloxy)-1,1′-biphenyl-4-yl)methyl)oxy)phenyl)-2-methylpropanoic acid], the pEC50 was 6.00 to 7.00.

In turn, `COc1ccc(F)c(-c2ccc(COc3cccc(C(C)CC(=O)O)c3)cc2OCC(C)(C)C)c1` (single isomer, unassigned) [Example 64.1, (3R)-3-(3-(((2-((2,2-Dimethylpropyl)oxy)-2′-fluoro-5′-(methyloxy)-1,1′-biphenyl-4-yl)methyl)oxy)phenyl)butanoic acid or (3S)-3-(3-(((2-((2,2-dimethylpropyl)oxy)-2′-fluoro-5′-(methyloxy)-1,1′-biphenyl-4-yl)methyl)oxy)phenyl)butanoic acid] gave a pEC50 of 6.00 to 7.00. Next, `CCCCOc1cc(COc2cccc(C(C)CC(=O)O)c2)ccc1-c1cccc(SC)c1` (single isomer, unassigned) [Example 64.2, (3R)-3-(3-(((2-(Butyloxy)-3′-(methylsulfanyl)-1,1′-biphenyl-4-yl)methyl)oxy)phenyl)butanoic acid or (3S)-3-(3-(((2-(butyloxy)-3′-(methylsulfanyl)-1,1′-biphenyl-4-yl)methyl)oxy)phenyl)butanoic acid]: 5.00 to 6.00; `COc1ccc(F)c(-c2cc(C)c(COc3cccc(C(C)CC(=O)O)c3)cc2C(C)(C)C)c1` (single isomer, unassigned) [Example 64.3, (3R)-3-(3-(((2-(1,1-Dimethylethyl)-2′-fluoro-5-methyl-5′-(methyloxy)-1,1′-biphenyl-4-yl)methyl)oxy)phenyl)butanoic acid or (3S)-3-(3-(((2-(1,1-dimethylethyl)-2′-fluoro-5-methyl-5′-(methyloxy)-1,1′-biphenyl-4-yl)methyl)oxy)phenyl)butanoic acid]: 5.00 to 6.00. The same measure for `CCC/C=C/c1cc(COc2cccc(C(C)CC(=O)O)c2)ccc1-c1cc(OC)ccc1F` (single isomer, unassigned) [Example 64.8, (3R)-3-(3-(((2′-Fluoro-5′-(methyloxy)-2-((1E)-1-pentenyl)-1,1′-biphenyl-4-yl)methyl)oxy)phenyl)butanoic acid or (3S)-3-(3-(((2′-fluoro-5′-(methyloxy)-2-((1E)-1-pentenyl)-1,1′-biphenyl-4-yl)methyl)oxy)phenyl)butanoic acid]: 6.00 to 7.00. Next, `COc1ccc(F)c(-c2ccc(COc3cccc(C(C)CC(=O)O)c3)cc2/C=C/C2CCCCC2)c1` (single isomer, unassigned) [Example 64.9, (3R)-3-(3-(((2-((E)-2-Cyclohexylethenyl)-2′-fluoro-5′-(methyloxy)-1,1′-biphenyl-4-yl)methyl)oxy)phenyl)butanoic acid or (3S)-3-(3-(((2-((E)-2-cyclohexylethenyl)-2′-fluoro-5′-(methyloxy)-1,1′-biphenyl-4-yl)methyl)oxy)phenyl)butanoic acid]: 6.00 to 7.00; `CSc1cccc(-c2ccc(COc3cccc(C(C)CC(=O)O)c3)cc2C(C)(C)C)c1` (single isomer, unassigned) [Example 64.23, (3R)-3-(3-(((2-(1,1-Dimethylethyl)-3′-(methylsulfanyl)-1,1′-biphenyl-4-yl)methyl)oxy)phenyl)butanoic acid or (3S)-3-(3-(((2-(1,1-dimethylethyl)-3′-(methylsulfanyl)-1,1′-biphenyl-4-yl)methyl)oxy)phenyl)butanoic acid]: 5.00 to 6.00; `CCOc1cccc(-c2ccc(COc3cccc(C(C)CC(=O)O)c3)cc2C(C)(C)C)c1` (single isomer, unassigned) [Example 64.24, (3R)-3-(3-(((2-(1,1-Dimethylethyl)-3′-(ethyloxy)-1,1′-biphenyl-4-yl)methyl)oxy)phenyl)butanoic acid or (3S)-3-(3-(((2-(1,1-dimethylethyl)-3′-(ethyloxy)-1,1′-biphenyl-4-yl)methyl)oxy)phenyl)butanoic acid]: 5.00 to 6.00. On to `COc1ccc(F)c(-c2ccc(C(C)Oc3cccc(C(C)CC(=O)O)c3)cc2C(C)(C)C)c1` (single isomer, unassigned) [Example 64.25], for which the pEC50 is 5.00 to 6.00.
